Patent US7709458B2, “Method for inhibiting cancer cell proliferation or increasing cancer cell apoptosis” (priority 2004, dated 2010)

Experiments:
[1] = system: NRK 52E cells (normal rat kidney cells); test: Cell proliferation assay on normal rat kidney cells (Alamar blue, 24-96 h); format: cell-based
Method: (§1) Cell proliferation assay on normal rat kidney cells. To assess potential effects on cell proliferation, the Alamar blue assay was performed using NRK 52E cells. Cells were harvested as described for the toxicity assay and seeded in 96-well tissue culture plates at a density of about 3×10^3 cells/well and evaluated over a 96-h time frame. Cells were allowed to attach for 3 h in the basal, serum-containing DMEM medium. After attachment, the media was aspirated and replaced with test solutions according to the design described for the toxicity assay with the addition of the Alamar blue dye to each solution (as 10% vol/vol). The reduction of Alamar blue dye was measured in a fluorimetric plate reader (Cytofluor) at 24, 48, 72 and 96 h. Morphological observation was also performed to ensure that the cell patterns matched the fluorescence data. Data were collected as raw fluorescence units and expressed as a percentage of the solvent control using the average values from all 8 wells used for each group (mean fluorescence test/mean fluorescence control×100=% control fluorescence) at each time period. As a further check to ensure that Alamar blue was not itself exerting some growth or inhibitory effects the experiments were also performed by plating cells at the lower density with exposures for 72 h without Alamar blue in the media. After the 72-h growth period, the media was aspirated and fresh DMEM containing Alamar blue (10% vol/vol) was added to all wells. Cells were further incubated in the Alamar blue solution for 6 h and fluorescence measured and data collected and expressed as described.

[2] = system: NRK 52E cells (normal rat kidney cells); test: Cytotoxicity on normal rat kidney cells using the Alamar blue assay; format: cell-based; details: for decrease in fluorescence: 200 μM
Method: Toxicity assays in normal rat kidney cells (NRK). The toxicity of c-di-GMP in independent cell lines was tested. In these studies, acute (24 and 72 h) toxicity in NRK 52 E cells (normal rat kidney cells) was determined using the Alamar blue assay. NRK 52E cells are a rat renal tubule epithelial cell line originally cloned from a mixed culture termed NRK. The Alamar blue assay is designed to measure the proliferation of cell lines and is used routinely to determine the cytotoxicity of various chemicals. […] It is minimally toxic to most living cells.
Chemical toxicity on normal rat kidney cells. To assess chemical toxicity, the Alamar blue assay was performed using NRK 52E cells plated at near confluence in 96-well tissue culture plates (Costar). Cells were maintained in DMEM containing 10% FBS and penicillin/streptomycin in tissue culture flasks. Cells were harvested by trypsinization, resuspended in the basal medium and counted. NRK 52E cells were plated at a density of 4-5×10^4 cells/well. After a 24-h attachment/acclimation interval, the tissue culture media was aspirated and replaced with the appropriate test solution. For most experiments, 8 wells were used for each solution, i.e., each solution was tested in one column of 8 replicate wells. […] Plates were incubated for 24 or 72 h and observed under phase contrast microscopy. All solutions were aspirated and replaced with fresh DMEM containing Alamar blue dye (10% vol/vol). Plates were incubated at 37° C. for an additional 6 h after which fluorescence was measured using a fluorimetric plate reader (Cytofluor). Data were collected as raw fluorescence units and expressed as a percentage of the solvent control using average values from all 8 wells for each group (mean fluorescence test/mean fluorescence control×100=% control fluorescence).
as §1

[3] = system: H508 human colon cancer cells; test: H508 colon cancer cell proliferation assay (sulforhodamine B colorimetric assay); format: cell-based; details: 50 μM
[4] = system: SH-SY5Y human neuroblastoma cells; test: cells; format: cell-based
Method: Toxicity assays in human neuroblastoma cells. SH-SY5Y human neuroblastoma cells were cultured in DMEM/Ham's F-12 (1:1) media, supplemented with 10% FBS, penicillin (100 IU/ml), streptomycin (100 μg/ml), and L-glutamine (2 mM); the cell culture medium was replaced every two days. Cultures were maintained at 37° C. in 95% air-5% CO2 in a humidified incubator. A standard curve established the linear range for the assay of approximately 1000-7000 cells/well for a 96 well plate. All data reported were within this range. MTS assay concentration-response curves were performed as follows: 1800 cells/well were plated in 96 well plates. After 30 h, media was changed to include no toxicant (control) or toxicant at varying concentrations. The cells were then exposed for 48 h, the media was removed, and 100 μl minimum essential medium without phenol red and 20 μl MTS reagent were added. Cells were incubated, and 2 h later, plates were measured at 490 nm on an ELx 808 microplate reader (Bio-Tek Instruments, Winooski, Vt.). EC50 values were determined via nonlinear regression using Prism software (GraphPad, San Diego, Calif.).
Cytotoxicity tests in human neuroblastoma cells. The 3-(4,5-dimethylthiazol-2-yl)-5-(3-carboxymethoxyphenyl)-2-(4-sulfophenyl)-2H-tetrazolium (MTS) assay is a quantitative colorimetric assay for measurement of cellular proliferation, cytotoxicity and viability. MTS is converted to a formazan product only in living cells. MTS is similar to 3-(4,5-dimethylthiazol-2-yl)-2,5-diphenyltetrazolium bromide (MTT), which is widely used in cytotoxicity assays. The difference is that the formazan product for the MTS reagent is soluble in media while the MTT reagent is not.
To study the cytotoxicity of c-di-GMP in SH-SY5Y human neuroblastoma cells, increasing concentrations (0.0001-1000 μM) were added to the culture medium and cell viability was assessed by the MTS assay. […] Up to 100 μM, there was no effect on cell viability; at greater concentrations, a sharp decline in cell viability was observed.

CD1 mice = test: Lethality in CD1 mice; details: 50 μl of 200 μM c-di-GMP, after 24 h
[5] = Solubility and stability of c-di-GMP; format: physicochemical

## Nc1nc(=O)c2ncn([C@@H]3OC4COP(=O)(O)O[C@H]5[C@@H](O)[C@H](n6cnc7c(=O)nc(N)[nH]c76)O[C@@H]5COP(=O)(O)OC4C3O)c2[nH]1 (some centres unmarked) [c-di-GMP, Bis(3′-->5′)-cyclic diguanylic acid]
[1]; 100 μM, 48 h
  fluorescence (% of control), NRK cell proliferation: 75 % of control fluorescence
[1]; 100 μM, 72 h
  fluorescence (% of control), NRK cell proliferation: 87 % of control fluorescence
[1]; 100 μM, 96 h
  fluorescence (% of control), NRK cell proliferation: 94 % control fluorescence
[1]; 200 μM, 96 h
  fluorescence (% of control), NRK cell proliferation: 85 % of control
[1]; 200 μM, up to 96 h
  NRK cell proliferation: retardation of cell proliferation that was much less pronounced than the 400-μM dose
[1]; 400 μM, 96-h period of exposure
  NRK cell proliferation: little growth over the 96-h period of exposure
[1]; 5, 25 or 50 μM (data not shown)
  NRK cell proliferation: not altered
[2]; 72 h confluent cells
  decrease in fluorescence: 36%
[2]; 72 h non-confluent cells
  decrease in fluorescence: 14%
[2]; 400 μM, 24 h
  toxicity on normal rat kidney cells: nontoxic
[2]; 20, 40, 100 μM
  fluorescence relative to the solvent control: no decease in fluorescence relative to the solvent control
[2]; 200 and 400 μM, 72 h exposure
  toxicity on NRK cells: toxicity was observed
[2]; 24 h exposure
  cytotoxicity on NRK cells: little evidence of cytotoxicity
[2]; all relevant biological concentrations / biologically relevant doses
  cytotoxicity on normal rat kidney cells: no cytotoxicity
[2]; c-di-GMP 20 μM, 24-h confluent
  Fluorescence (% control): 98.5 % control
[2]; c-di-GMP 20 μM, 72-h confluent
  Fluorescence (% control): 98.0 % control
[2]; c-di-GMP 20 μM, 72-h non-confluent
  Fluorescence (% control): 97.0 % control
[2]; c-di-GMP 40 μM, 24-h confluent
  Fluorescence (% control): 99.4 % control
[2]; c-di-GMP 40 μM, 72-h confluent
  Fluorescence (% control): 98.0 % control
[2]; c-di-GMP 40 μM, 72-h non-confluent
  Fluorescence (% control): 99.0 % control
[2]; c-di-GMP 100 μM, 24-h confluent
  Fluorescence (% control): 99.7 % control
[2]; c-di-GMP 100 μM, 72-h confluent
  Fluorescence (% control): 92.2 % control
[2]; c-di-GMP 200 μM, 24-h confluent
  Fluorescence (% control): 101.6 % control
[2]; c-di-GMP 200 μM, 72-h confluent
  Fluorescence (% control): 64.2 % control
[2]; c-di-GMP 200 μM, 72-h non-confluent
  Fluorescence (% control): 86.0 % control
[2]; c-di-GMP 400 μM, 24-h confluent
  Fluorescence (% control): 96.2 % control
[2]; c-di-GMP 400 μM, 72-h confluent
  Fluorescence (% control): 40.0 % control
[2]; c-di-GMP 400 μM, 72-h non-confluent
  Fluorescence (% control): 3.0 % control
[3]
  apoptosis of H508 cells by microscopic examination: not observed by microscopic examination
[4]
  cytotoxicity on human neuroblastoma cells: no cytotoxicity
[4]; Homo sapiens, SH-SY5Y cells, 48 hr exposure, MTS assay, read-out: EC50 for decrease of cell viability
  EC50: 350 µM
[4]; human, 48 h
  concentration with no effect on cell viability: Up to 100 μM
CD1 mice
  lethality: non-lethal
[5]; physiological conditions
  stability: stable
[5]; water physiological saline
  solubility: soluble
